Assay results: patent US20230295157A1, “3-(1H-IMIDAZOL-2-YL)-2,3,8,8A-TETRAHYDROINDOLIZIN-5(1H)-ONE DERIVATIVES USEFUL AS FACTOR XIA INHIBITORS” (JANSSEN PHARMACEUTICA NV, priority 2020, published 2023)
Like-named read-outs stand apart in the source and are kept apart here.

Legend:
Factor XIa = Factor XIa (Homo sapiens (Human), UniProt P03951); experiment: Factor XIa inhibition assay (FLINT) utilizing a fluorophore-quencher pair peptide substrate; type: biochemical; settings: 30 min preincubation, kinetic reads over 30 min, read-out: FXIa Kin Inh IC50
How it was run: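 FXIa ([…]) preincubated 30 min with compound (11-point 3-fold dilution, top 100 nM, 2% DMSO), then 15 μM quenched FXI Arg146-based peptide added; Tris pH 7.5, CaCl2, BSA, CHAPS. Fluorescence 485/520 nm read kinetically every 5 min over 30 min at RT; IC50 by 4-parameter fit.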

human plasma kallikrein = human plasma kallikrein (Homo sapiens (Human), UniProt P03952); experiment: Kallikrein inhibition assay (FLINT) utilizing a quenched AMC peptide substrate; type: biochemical; settings: 30 min preincubation, read-out: Kallikrein Kin Inh IC50
How it was run: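 Fluorogenic Z-Gly-Pro-Arg-AMC cleavage (50 μM substrate, 2 nM kallikrein, Tris pH 7.5, CaCl2, BSA, CHAPS, 2% DMSO) read kinetically at 340/440 nm for 30 min after 30-min compound pre-incubation. Compounds in 11-point 3-fold series from 1 μM; percent inhibition fitted to four-parameter equation for IC50.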

[1] = 5Fam-KLTRAETV-K5Tamra substrate 15 μM
[2] = kinetic reads over 30 min, Z-Gly-Pro-Arg-AMC substrate 50 μM
[3] = 5Fam-[…]-K5Tamra substrate 15 μM

human plasma kallikrein, sequence (P03952 391-638): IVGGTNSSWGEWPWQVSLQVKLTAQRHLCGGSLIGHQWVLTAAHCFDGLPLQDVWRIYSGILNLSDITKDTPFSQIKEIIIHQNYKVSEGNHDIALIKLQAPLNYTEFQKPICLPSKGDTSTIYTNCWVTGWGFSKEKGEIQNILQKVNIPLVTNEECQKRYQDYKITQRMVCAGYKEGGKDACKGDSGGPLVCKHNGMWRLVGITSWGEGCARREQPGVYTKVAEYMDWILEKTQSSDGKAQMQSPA
human plasma kallikrein, sequence (P03952 20-390 partner): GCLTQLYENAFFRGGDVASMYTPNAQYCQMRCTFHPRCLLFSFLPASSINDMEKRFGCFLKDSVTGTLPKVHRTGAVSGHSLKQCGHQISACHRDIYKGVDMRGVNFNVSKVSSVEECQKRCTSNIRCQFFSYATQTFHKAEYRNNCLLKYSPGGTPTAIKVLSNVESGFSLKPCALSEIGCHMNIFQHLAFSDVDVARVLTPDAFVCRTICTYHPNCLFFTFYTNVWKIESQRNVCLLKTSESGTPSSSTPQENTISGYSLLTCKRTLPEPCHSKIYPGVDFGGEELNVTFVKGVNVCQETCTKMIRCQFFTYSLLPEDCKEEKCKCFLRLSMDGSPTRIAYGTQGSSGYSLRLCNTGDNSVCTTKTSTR
Factor XIa, sequence (P03951 388-625): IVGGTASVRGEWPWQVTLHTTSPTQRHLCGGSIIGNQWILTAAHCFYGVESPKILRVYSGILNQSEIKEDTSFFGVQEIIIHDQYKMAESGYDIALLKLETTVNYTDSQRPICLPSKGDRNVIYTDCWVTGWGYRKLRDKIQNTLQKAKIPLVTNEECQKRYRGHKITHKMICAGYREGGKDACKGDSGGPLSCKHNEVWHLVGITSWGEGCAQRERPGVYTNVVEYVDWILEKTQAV
Factor XIa, sequence (P03951 19-387 partner): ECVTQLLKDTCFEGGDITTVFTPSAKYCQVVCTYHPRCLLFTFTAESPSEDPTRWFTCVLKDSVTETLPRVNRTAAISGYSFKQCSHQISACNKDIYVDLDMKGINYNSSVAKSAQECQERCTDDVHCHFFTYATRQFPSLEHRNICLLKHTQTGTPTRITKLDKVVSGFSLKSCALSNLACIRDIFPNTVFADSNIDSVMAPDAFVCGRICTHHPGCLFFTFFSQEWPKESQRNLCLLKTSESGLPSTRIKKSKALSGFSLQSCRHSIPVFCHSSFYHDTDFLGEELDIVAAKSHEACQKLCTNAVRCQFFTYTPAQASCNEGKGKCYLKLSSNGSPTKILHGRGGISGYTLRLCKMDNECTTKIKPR

IC50 (Factor XIa; [1]) [nM]	IC50 (human plasma kallikrein; [2]) [µM]	IC50 (Factor XIa; [3]) [nM]	IC50 (human plasma kallikrein; μM, kinetic reads) [µM]	SMILES
95.6	0.137			O=C1C=C(c2c(-n3cnnn3)ccc(Cl)c2F)C[C@H]2CC[C@@H](c3nc(-c4ncc(CO)s4)c[nH]3)N12 [Example 39, (3S,8aR)-7-(3-Chloro-2-fluoro-6-(1H-tetrazol-1-yl)phenyl)-3-(4-(5-(hydroxymethyl)thiazol-2-yl)-1H-imidazol-2-yl)-2,3,8,8a-tetrahydroindolizin-5(1H)-one]
2.2	0.0168			O=C1C=C(c2c(-n3cnnn3)ccc(Cl)c2F)C[C@H]2CC[C@@H](c3ncc(-c4ccnc(CO)c4F)[nH]3)N12 (single isomer, unassigned) [Example 194, (3*S,8a*R)-7-(3-chloro-2-fluoro-6-(1H-tetrazol-1-yl)phenyl)-3-(4-(3-fluoro-2-(hydroxymethyl-d2)pyridin-4-yl)-1H-imidazol-2-yl)-2,3,8,8a-tetrahydroindolizin-5(1H)-one]
0.3	0.0049			Nc1ccc(-c2cnc([C@@H]3CC[C@H]4CC(c5c(-n6cnnn6)ccc(Cl)c5F)=CC(=O)N43)[nH]2)c(Cl)n1 [Example 352, (3S,8aS)-3-(5-(6-Amino-2-chloropyridin-3-yl)-1H-imidazol-2-yl)-7-(3-chloro-2-fluoro-6-(1H-tetrazol-1-yl)phenyl)-2,3,8,8a-tetrahydroindolizin-5(1H)-one]
2.6	0.0166			NC(=O)c1ccc(-c2cnc([C@@H]3CC[C@@H]4CC(c5c(-n6cnnn6)ccc(Cl)c5F)=CC(=O)N43)[nH]2)cn1 (single isomer, unassigned) [Example 225]
0.5	0.0074			CNc1ccc(-c2cnc([C@@H]3CC[C@H]4CC(c5c(-n6cnnn6)ccc(Cl)c5F)=CC(=O)N43)[nH]2)c(F)n1 [Example 291, (3S,8aS)-7-(3-Chloro-2-fluoro-6-(1H-tetrazol-1-yl)phenyl)-3-(5-(2-fluoro-6-(methylamino)pyridin-3-yl)-1H-imidazol-2-yl)-2,3,8,8a-tetrahydroindolizin-5(1H)-one]
79.7			1.2	CS(=O)(=O)Nc1ccccc1-c1c[nH]c([C@@H]2CCC3CC(c4c(-n5cnnn5)ccc(Cl)c4F)=CC(=O)N32)n1 (stereo partly drawn) [Example 293, N-(2-(2-((3S)-7-(3-Chloro-2-fluoro-6-(1H-tetrazol-1-yl)phenyl)-5-oxo-1,2,3,5,8,8a-hexahydroindolizin-3-yl)-1H-imidazol-4-yl)phenyl)methanesulfonamide]
0.2	0.0005			O=C(Nc1ccccc1-c1c[nH]c([C@@H]2CC[C@@H]3CC(c4c(-n5cnnn5)ccc(Cl)c4F)=CC(=O)N32)n1)C1CC1 [Example 369, N-(2-(2-((3S,8aR)-7-(3-chloro-2-fluoro-6-(1H-tetrazol-1-yl)phenyl)-5-oxo-1,2,3,5,8,8a-hexahydroindolizin-3-yl)-1H-imidazol-4-yl)phenyl)cyclopropanecarboxamide]

More lines, now with the values behind:

SMILES	IC50 (Factor XIa; [1]) [nM]	IC50 (human plasma kallikrein; [2]) [µM]	IC50 (Factor XIa; [3]) [nM]	IC50 (human plasma kallikrein; μM, kinetic reads) [µM]
Nc1cc(-c2cnc([C@@H]3CC[C@@H]4CC(c5c(-n6cnnn6)ccc(Cl)c5F)=CC(=O)N43)[nH]2)ccn1 [Example 389, (3S,8aR)-3-(5-(2-aminopyridin-4-yl)-1H-imidazol-2-yl)-7-(3-chloro-2-fluoro-6-(1H-tetrazol-1-yl)phenyl)-2,3,8,8a-tetrahydroindolizin-5(1H)-one]	1.4	0.0124		
Nc1cc(-c2cnc([C@@H]3CC[C@@H]4CC(c5c(-n6cnnn6)ccc(Cl)c5F)=CC(=O)N43)[nH]2)c(Cl)cn1 [Example 15, (3S,8aR)-3-[5-(2-Amino-5-chloro-4-pyridyl)-1H-imidazol-2-yl]-7-[3-chloro-2-fluoro-6-(tetrazol-1-yl)phenyl]-2,3,8,8a-tetrahydro-1H-indolizin-5-one]	3.7	0.0275		
CCNc1nccc(-c2cnc([C@@H]3CC[C@@H]4CC(c5c(-n6cnnn6)ccc(Cl)c5F)=CC(=O)N43)[nH]2)c1F [Example 390, (3S,8aR)-7-(3-chloro-2-fluoro-6-(1H-tetrazol-1-yl)phenyl)-3-(5-(2-(ethylamino)-3-fluoropyridin-4-yl)-1H-imidazol-2-yl)-2,3,8,8a-tetrahydroindolizin-5(1H)-one]	0.4	0.0013		
C[C@@H](C#N)c1nccc(-c2cnc([C@@H]3CCC4CC(c5c(-n6cnnn6)ccc(Cl)c5F)=CC(=O)N43)[nH]2)c1F (relative stereo) [Example 164, (2*R)-2-(4-(2-((3S)-7-(3-chloro-2-fluoro-6-(1H-tetrazol-1-yl)phenyl)-5-oxo-1,2,3,5,8,8a-hexahydroindolizin-3-yl)-1H-imidazol-5-yl)-3-fluoropyridin-2-yl)propanenitrile]	4.3	0.0166		
Cc1c(-c2cnc([C@@H]3CCC4CC(c5c(-n6cnnn6)ccc(Cl)c5F)=CC(=O)N43)[nH]2)ccnc1N (stereo partly drawn) [Example 21, (3S)-3-(5-(2-Amino-3-methylpyridin-4-yl)-1H-imidazol-2-yl)-7-(3-chloro-2-fluoro-6-(1H-tetrazol-1-yl)phenyl)-2,3,8,8a-tetrahydroindolizin-5(1H)-one]	6.3	0.0655		
[2H]c1nc([C@@H]2CC[C@@H]3CC(c4c(-n5cnnn5)ccc(Cl)c4F)=CC(=O)N32)[nH]c1-c1c(F)nc(N)c([2H])c1[2H] [Example 149, (3S,8aR)-3-[5-(6-amino-4,5-dideuterio-2-fluoro-3-pyridyl)-4-deuterio-1H-imidazol-2-yl]-7-[3-chloro-2-fluoro-6-(tetrazol-1-yl)phenyl]-2,3,8,8a-tetrahydro-1H-indolizin-5-one]	0.5	0.0076		
O=C1C=C(c2cc(Cl)ccc2-n2cnnn2)C[C@H]2CC[C@@H](c3ncc(-c4ccnc(NC56CC(C5)C6)c4F)[nH]3)N12 [Example 96, (3S,8aR)-3-(5-(2-(Bicyclo[1.1.1]pentan-1-ylamino)-3-fluoropyridin-4-yl)-1H-imidazol-2-yl)-7-(5-chloro-2-(1H-tetrazol-1-yl)phenyl)-2,3,8,8a-tetrahydroindolizin-5(1H)-one]	5.4	0.0026		
[2H]C([2H])(O)c1nccc(-c2cnc([C@@H]3CCC4CC(c5c(-n6cnnn6)ccc(Cl)c5F)=CC(=O)N43)[nH]2)c1Cl (stereo partly drawn) [Example 189, (3S)-3-(5-(3-chloro-2-(hydroxymethyl-d2)pyridin-4-yl)-1H-imidazol-2-yl)-7-(3-chloro-2-fluoro-6-(1H-tetrazol-1-yl)phenyl)-2,3,8,8a-tetrahydroindolizin-5(1H)-one]		0.0167	1.8	
NC(=O)c1cc(-c2cnc([C@@H]3CC[C@@H]4CC(c5c(-n6cnnn6)ccc(Cl)c5F)=CC(=O)N43)[nH]2)ccc1F [Example 233, 5-(2-((3S,8aR)-7-(3-chloro-2-fluoro-6-(1H-tetrazol-1-yl)phenyl)-5-oxo-1,2,3,5,8,8a-hexahydroindolizin-3-yl)-1H-imidazol-5-yl)-2-fluorobenzamide]	24.2	0.0067		
O=C1C=C(c2c(-n3cnnn3)ccc(Cl)c2F)CC2CC[C@H](c3nc(F)c(-c4ccnc(N[C@H]5CCOC5)c4F)[nH]3)N12 (relative stereo) [Example 77, (3R*)-7-(3-chloro-2-fluoro-6-(1H-tetrazol-1-yl)phenyl)-3-(4-fluoro-5-(3-fluoro-2-(((S)-tetrahydrofuran-3-yl)amino)pyridin-4-yl)-1H-imidazol-2-yl)-2,3,8,8a-tetrahydroindolizin-5(1H)-one]		0.005	1.3	
O=C1C=C(c2c(-n3cnnn3)ccc(Cl)c2F)C[C@H]2CC[C@@H](c3ncc(-c4ccnc(-n5cccn5)c4)[nH]3)N12 [Example 93, (3S,8aR)-3-(5-(2-(1H-pyrazol-1-yl)pyridin-4-yl)-1H-imidazol-2-yl)-7-(3-chloro-2-fluoro-6-(1H-tetrazol-1-yl)phenyl)-2,3,8,8a-tetrahydroindolizin-5(1H)-one]	10.3	0.0031		
Nc1cc(-c2[nH]c([C@@H]3CC[C@@H]4CC(c5c(-n6cnnn6)ccc(Cl)c5F)=CC(=O)N43)nc2F)c(Cl)cn1 [Example 1, (3S,8aR)-3-[5-(2-Amino-5-chloro-4-pyridyl)-4-fluoro-1H-imidazol-2-yl]-7-[3-chloro-2-fluoro-6-(tetrazol-1-yl)phenyl]-2,3,8,8a-tetrahydro-1H-indolizin-5-one]	12.6	0.0679		
O=C1Nc2ccc(-c3cnc([C@@H]4CC[C@H]5CC(c6c(-n7cnnn7)ccc(Cl)c6F)=CC(=O)N54)[nH]3)cc2CO1 (relative stereo) [Example 278]		0.0019	0.5	
O=C1C=C(c2c(-n3cnnn3)ccc(Cl)c2F)C[C@H]2CC[C@H](c3ncc(-c4ccnc(C5(O)CC5)c4F)[nH]3)N12 (single isomer, unassigned) [Example 116, (3*R,8aR)-7-(3-chloro-2-fluoro-6-(1H-tetrazol-1-yl)phenyl)-3-(5-(3-fluoro-2-(1-hydroxycyclopropyl)pyridin-4-yl)-1H-imidazol-2-yl-4-d)-2,3,8,8a-tetrahydroindolizin-5(1H)-one]	8.3	0.0644		
O=C1C=C(c2c(-n3cnnn3)ccc(Cl)c2F)C[C@H]2CC[C@H](c3ncc(-c4ccnc(N5CCC5)c4F)[nH]3)N12 (single isomer, unassigned) [Example 110, (3*R,8aR)-3-(5-(2-(azetidin-1-yl)-3-fluoropyridin-4-yl)-1H-imidazol-2-yl)-7-(3-chloro-2-fluoro-6-(1H-tetrazol-1-yl)phenyl)-2,3,8,8a-tetrahydroindolizin-5(1H)-one]		0.0069	11	
